PubChem BioAssay (NCI)
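How tested: cells in 96-well plates exposed to compound for 48 hours at five concentrations. At the GI50, growth is halved. At the TGI there is no net growth.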

Assays:
Test in all cases: inhibition of tumour cell growth, NCI panel, 48 h
ACHN renal = test system: ACHN renal
CCRF-CEM leukemia = test system: CCRF-CEM leukemia
HCC-2998 colon = test system: HCC-2998 colon
HT29 colon = test system: HT29 colon
MDA-MB-231 breast = test system: MDA-MB-231 breast
MOLT-4 leukemia = test system: MOLT-4 leukemia
RPMI-8226 leukemia = test system: RPMI-8226 leukemia
SF-268 CNS = test system: SF-268 CNS
SK-OV-3 ovarian = test system: SK-OV-3 ovarian
SW-620 colon = test system: SW-620 colon

| SMILES | GI50 (ACHN renal) [µM] | TGI (ACHN renal) [µM] | GI50 (CCRF-CEM leukemia) [µM] | TGI (CCRF-CEM leukemia) [µM] | GI50 (HCC-2998 colon) [µM] | TGI (HCC-2998 colon) [µM] | GI50 (HT29 colon) [µM] | TGI (HT29 colon) [µM] | GI50 (MDA-MB-231 breast) [µM] | TGI (MDA-MB-231 breast) [µM] | GI50 (MOLT-4 leukemia) [µM] | TGI (MOLT-4 leukemia) [µM] | GI50 (RPMI-8226 leukemia) [µM] | TGI (RPMI-8226 leukemia) [µM] | GI50 (SF-268 CNS) [µM] | TGI (SF-268 CNS) [µM] | GI50 (SK-OV-3 ovarian) [µM] | TGI (SK-OV-3 ovarian) [µM] | GI50 (SW-620 colon) [µM] | TGI (SW-620 colon) [µM] |
| --- | --- | --- | --- | --- | --- | --- | --- | --- | --- | --- | --- | --- | --- | --- | --- | --- | --- | --- | --- | --- |
| O=C(NO)c1ccc(Cn2c(=O)n(-c3ccccc3F)c(=O)c3ccccc32)cc1 | 2.04 | 5.59 | 2.07 | > 100 | 1.42 | 2.96 | 2.02 | 10.5 | 3.03 | 7.89 | 2.34 | > 100 | 1.19 | 18.9 | 1.74 | 4.01 | 1.96 | 4.87 | 1.59 | 4.37 |
| Cc1cc(O)cc(C)c1/C=C/c1cncc(-c2nn[nH]n2)c1 | > 25 | > 25 | > 25 | > 25 | > 25 | > 25 | > 25 | > 25 | > 25 | > 25 | > 25 | > 25 | > 25 | > 25 | > 25 | > 25 | > 25 | > 25 | > 25 | > 25 |
| COc1ccc2c(c1OC)OCC(CN(C)C)C2=O (stereo not given) |  | 31.7 |  | 8.54 |  | 33.7 |  | 40.1 |  | 34.6 |  | 5.32 |  | 8.56 |  | 53.2 |  | > 57.3 |  | 26.4 |
| N#CS.N=C=S.N=C=S.[Cu+2].[NH2-].[NH2-].[NH2-].[NH2-].c1ccc2ncccc2c1 | > 100 | > 100 | 24.3 | 57.5 | 83.9 | > 100 | 60.7 | > 100 | 38.7 | 84.2 | > 100 | > 100 | > 100 | > 100 | 49.7 | > 100 | 24.4 | 62.7 | > 100 | > 100 |
| O=C(CCC(C(=O)c1ccccc1)c1ccccc1)c1ccccc1 (stereo not given) | 31.3 | > 100 | 3.97 | 77.2 | 29.7 | > 100 | 4.21 | > 100 | 23.4 | > 100 | 5.75 | > 100 | 5.75 | 76.1 | 35.6 | > 100 | 78.8 | > 100 | 3.75 | > 100 |
| Cc1ncsc1-c1ccc(CNC(=O)[C@@H]2C[C@@H](O)CN2C(=O)[C@@H](NC(=O)C2(C#N)CC2)C(C)(C)C)cc1 | > 100 | > 100 | > 100 | > 100 | > 100 | > 100 | > 100 | > 100 | > 100 | > 100 | > 100 | > 100 | 62.4 | > 100 | > 100 | > 100 | > 100 | > 100 | > 100 | > 100 |
| CCOC(=O)[C@@H](C)C[C@H](Cc1ccccc1)NC(=O)c1csc([C@@H](C[C@H](C(C)C)N(C)C(=O)[C@H](CC)NC(=O)[C@H]2CCCCN2C)OC(C)=O)n1 | 0.00196 | > 16.7 | 0.00397 | > 16.7 | 0.00267 | > 5.64 | < 0.00167 | > 16.7 | 0.00323 | 0.308 | 0.00896 | > 16.7 | < 0.00167 | > 16.7 | < 0.027 | > 16.7 | < 0.00167 | > 16.7 | < 0.00167 | > 16.7 |
| C=C1C(=O)O[C@@H]2C1C[C@@H](O)C(=C)CC/C=C(\C)CCC[C@H](C)[C@H]2OC(C)=O (stereo not given in full) | 1.69 | 3.85 | 2.34 | 5.05 | 15.4 | 29.2 | 4.17 | > 100 | 4.07 | 18.6 | 2.54 | 5.9 | 2.52 | 6.61 | 11 | 30.5 | 14.8 | 32.5 | 3.81 | 13.6 |
| CCCCN(CCCC)CCCn1c(=O)c2c3ccccc3n(C)c2n2nnc(-c3ccccc3)c12 | 34.7 | > 100 | 4.22 | 92 | 20.3 | > 100 | 7.72 | 36.3 | 36.6 | > 100 | 13.9 | > 100 | 6 | 49.4 | > 100 | > 100 | 30.3 | > 100 | 26.5 | > 100 |
| COc1ccc(-c2nc(N3CCN(C(=O)C4CCCCC4)CC3)c3c4c(sc3n2)CCCC4)cc1 | 23.9 | > 100 | > 100 | > 100 | > 100 | > 100 | > 100 | > 100 | 19.4 | 82.8 | > 100 | > 100 | 22 | > 100 | 89 | > 100 | 25.2 | 71.7 | > 100 | > 100 |
| Cc1cc(Oc2ccc3nc(COc4ccc(CC5SC(=O)NC5=O)cc4)n(C)c3c2)cc(C)c1N (stereo not given) | 48.9 | > 100 | 30.9 | > 100 | 54.9 | > 100 | 45.2 | > 100 | 45.4 | > 100 | 26.4 | 69.5 | 9.73 | 45.4 | 46.7 | > 100 | > 66.1 | > 100 | 30.6 | > 100 |
| O=C(NCc1ccncc1)C12CC3CC(C1)CC(c1ccc(Cl)cc1)(C3)C2 | 12.5 | 25 | 17.7 | 45 | 14.3 | 29.4 | 11.9 | 25.4 | 12 | 26.2 | 8.15 | 27.2 | 7.59 | 71.7 | 13.7 | 29.5 | 12.5 | 25.2 | 13.7 | 28.5 |
